Laboratory results as given in US20130102556A1, “Use of N1,N4-bis[3-(Ethylamino)Propyl]-2-Butene-1,4-Diamine Compounds in Combination with Epigenetic-Acting Pharmaceuticals for Enhanced Cancer Therapy” (THE JOHNS HOPKINS UNIVERSITY, priority 2010, published 2013).

What was measured:
H3K4me2 = experiment: Global H3K4me2 histone mark in Calu-6 cells, Western blot of nuclear protein; type: cell-based, human; details: Calu-6, increasing doses (1, 5, 10 μM), 24 hours of treatment
acetylated H3K9 (AcH3K9) = experiment: Global acetylated H3K9 histone mark in Calu-6 cells, Western blot of nuclear protein; type: cell-based, human; details: Calu-6, increasing doses, 24 and 48 hours

## CCNCCCNC/C=C\CNCCCNCC [PG-11047, (2Z)-N1,N4-bis[3-(ethylamino)propyl]-2-butene-1,4-diamine]
H3K4me2
  increase in H3K4me2 protein: 2-4 fold
Acetylated H3K9 (AcH3K9)
  increase in global amounts of acetylated H3K9 protein: 2-3 fold
